Like-named read-outs stand apart in the source and are kept apart here.
Assay type: in vivo, male hairless guinea pigs
Settings: for average plasma calcitonin concentration (given in flux units): second hour/steady state
Procedure: This study was undertaken to assess the effect on the transdermal delivery rate by electrotransport of an agent such as calcitonin (sCT), a protein with an affinity for the surfactant Tween 20 at pH 6.5, by delivering the agent in the presence of Tween 20 from a donor gel.
A customized electrotransport system, and its reservoir matrices and contents were prepared as described below. A low level current of 100 μA cm^-2 was maintained throughout each test by a self contained power module (ALZA Corp., Palo Alto, Calif., Code #84166). The peptide agent salmon calcitonin (sCT, UCB-Bioproducts S.A., Chemin du Foriest, Allend, Belgium) was chosen for delivery by electrotransport. The protein calcitonin has a positive net charge at pH 6.5 and was therefore anodically driven from the positive electrode toward the negative electrode. Three gels were prepared for use with the electrotransport system. The anode gel provided the proper environment for the anodic electrochemical reaction. It was comprised of Bio-Rad resin beads (100-200 mesh, chloride form, Bio-Rad Laboratories, Richmond, Calif.) in 48 mM histidine buffer, pH 6.5, and 0.5% hydroxyethyl cellulose (HEC). The cathode gel provided the proper environment for the cathodic electrochemical reaction and completed the electrical circuit. It was comprised of an L-histidine buffered HEC gel, pH 2.9, and sodium chloride. The donor gel occupied a surface area of 2 cm^2 and was separated from the anode compartment by a 1 Kdalton molecular weight (MW) cut-off membrane (Millipore Corp., Bedford, Mass.). The donor gel was prepared by first mixing 48 mM histidine buffer, pH 6.5, with HEC, vortexing vigorously to completely dissolve the HEC and to ensure homogeneous polymerization of the gel. After a few minutes, either a 10% solution of Tween 20 (Pierce, Rockford, Ill.) or water was added in conjunction with a stock solution of calcitonin and gently mixed into the gel. The amounts of each component were calculated to produce a nominal concentration of 1 mM sCT in a 1% HEC gel of 1 mL volume (with or without Tween 20). The gel was slowly rotated and allowed to equilibrate overnight at 4° C. An aliquot of 275-295 μL of donor gel was weighed and placed in the donor reservoir of the electrotransport system immediately prior to beginning each experiment. The 3 gels were contained in 2 separate structures, with each gel compartment being a punched double-sided adhesive foam ring 0.081 cm (0.032") thick with an outside diameter of 3.2 cm (11/4") and an inside diameter of 1.6 cm (5/8"). The compartment ring containing the cathode gel was open on the skin side. The back side was covered by an electrode sandwich consisting of a 3.2 cm (11/4") diameter release liner cover, a 2.2 cm (13/15") diameter punch of electrical conducting adhesive tape, a 11 cm (41/2") silver wire that was slightly coiled at one end, with the coil placed at the center of the electrode leading out, and a 1.6 cm (5/8") diameter punch of AgCl PIB electrode film. The donor gel compartment was also open on the skin side, but the back side was covered by a 2.2 cm (13/15") diameter punch of a 1,000 Dalton MW cut-off membrane. The anode compartment was then stacked on top of the donor compartment and covered with an electrode sandwich identical to the cathode, except that the AgCl PIB electrode film was replaced with a 0.025 mm thick silver (Ag) foil (Johnson Mathey Catalog Co., Ward Hill, Mass.). Both the cathode and the donor compartments also included adhesive washers (In Vivo Metric, Healdsberg, Calif.) with an outside diameter of 3.2 cm (11/4") and an inside diameter of 1.6 cm (5/8") between the skin and the bottom of the compartment to improve skin adhesion. All components of the system were punched out in advance and assembled on the day of the experiment. […]

For Salmon Calcitonin [reference compound], the “time to approach steady state calcitonin levels” value (active current groups (1) and (2)) was “By the second hour”, the “average plasma calcitonin concentration (given in flux units)” value (active electrotransport 100 μA cm^-2, 1 mM sCT gel pH 6.5, with Tween 20 (group 1)) was 5.4 μg sCT cm^-2 h^-1 and the “average plasma calcitonin concentration (given in flux units)” value (active electrotransport 100 μA cm^-2, 1 mM sCT gel pH 6.5, without Tween 20 (group 2)) was 1.2 μg sCT cm^-2 h^-1. The “calcitonin plasma concentration, time course” value (active electrotransport groups (1) and (2), first hour) was “increased rapidly”, the “average plasma calcitonin concentration with Tween 20 relative to without Tween 20” value (active electrotransport, group 1 vs. group 2, second hour) was 3 fold and the “calcitonin plasma profiles, group (1) with Tween 20 vs group (2) without (statistical comparison)” value (active electrotransport, p<0.05, ANOVA) was “significantly different from one another”. The “calcitonin plasma levels, passive systems” value (passive delivery (control group 3, with and without Tween 20), first 4 hrs.) was “continued to lack significant calcitonin plasma levels” and the “calcitonin plasma levels, passive systems” value (passive delivery (no current), first hour) was “low and remained at or slightly above the limit of detection”.
